One assay deals with Lox-IMVI melanoma cell line. Briefly: Lox-IMVI anti-proliferative assay (growth inhibition, Cell Titer-Glo). Format: cell-based, human. The following applies: Homo sapiens; IC50 activity level in the cell-based Lox-IMVI anti-proliferative assay; read-out: Activity. In a few lines: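 First, compound was dispensed as a 10-point 3-fold series (0.5 nM–10 μM, duplicate). Then cells in RPMI + 10% FBS were added and grown 72 h at 37 °C with 0.2% DMSO. Finally, ATP luminescence was read and IC50 calculated versus DMSO control.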
Consider `NC(=O)[C@H]1CC[C@@H](n2c(Nc3c(F)cccc3Cl)nc3cnc(N[C@@H]4CCC[C@H]4O)nc32)CC1` [Example 250, (1S,4s)-4-(8-(2-chloro-6-fluorophenylamino)-2-((1R,2R)-2-hydroxycyclopentylamino)-9H-purin-9-yl)cyclohexanecarboxamide], for which the IC50 is greater than 1000 nM.
For `NC(=O)[C@H]1CC[C@@H](n2c(Nc3c(F)cc(Cl)cc3F)nc3cnc(N[C@@H]4CCOC4)nc32)CC1` [Example 221, (1S,4s)-4-(8-(4-chloro-2,6-difluorophenylamino)-2-((R)-tetrahydrofuran-3-ylamino)-9H-purin-9-yl)cyclohexanecarboxamide], the IC50 was 500 to 1000 nM.
Consider `NC(=O)[C@H]1CC[C@@H](n2c(Nc3ccc(Cl)c(F)c3F)nc3cnc(N[C@H]4COC[C@@H]4O)nc32)CC1` [Example 317, (1R,4s)-4-(8-(4-chloro-2,3-difluorophenylamino)-2-((3S,4R)-4-hydroxytetrahydrofuran-3-ylamino)-9H-purin-9-yl)cyclohexanecarboxamide], for which the IC50 was 500 to 1000 nM.
On to `NC(=O)[C@H]1CC[C@@H](n2c(Nc3c(Cl)cc(F)cc3Cl)nc3cnc(N[C@H]4CCOC4)nc32)CC1` [Example 243, (1R,4s)-4-(8-(2,6-dichloro-4-fluorophenylamino)-2-((S)-tetrahydrofuran-3-ylamino)-9H-purin-9-yl)cyclohexanecarboxamide], for which the IC50 lay within 500 to 1000 nM.
For `CC(C)Nc1ncc2nc(Nc3c(F)cc(Cl)cc3F)n([C@H]3CC[C@@H](C(N)=O)CC3)c2n1` [Example 124, (1s,4s)-4-(8-(4-chloro-2,6-difluorophenylamino)-2-(isopropylamino)-9H-purin-9-yl)cyclohexanecarboxamide], the IC50 is greater than 1000 nM.
For the compound `CC(C)Nc1ncc2nc(Nc3c(Cl)cc(Cl)cc3Cl)n([C@H]3CC[C@@H](C(N)=O)CC3)c2n1` [Example 59, (1s,4s)-4-(2-(isopropylamino)-8-(2,4,6-trichlorophenylamino)-9H-purin-9-yl)cyclohexanecarboxamide], the IC50 lay within 500 to 1000 nM.
`N#Cc1cc(F)c(Nc2nc3cnc(NC4CCC(F)(F)CC4)nc3n2[C@H]2CC[C@@H](C(N)=O)CC2)c(F)c1` [Example 396, (1s,4s)-4-(8-(4-cyano-2,6-difluorophenylamino)-2-(4,4-difluorocyclohexylamino)-9H-purin-9-yl)cyclohexanecarboxamide]: the IC50 fell in the range of 500 to 1000 nM.
On to `N#Cc1ccc(Nc2nc3cnc(NC4CCOCC4)nc3n2[C@H]2CC[C@@H](C(N)=O)CC2)c(F)c1F` [Example 379, (1s,4s)-4-(8-(4-cyano-2,3-difluorophenylamino)-2-(tetrahydro-2H-pyran-4-ylamino)-9H-purin-9-yl)cyclohexanecarboxamide], for which the IC50 is greater than 1000 nM.
For `NC(=O)[C@H]1CC[C@@H](n2c(Nc3c(F)ccc(Cl)c3F)nc3cnc(N[C@@H]4CCC[C@H](O)C4)nc32)CC1` [Example 362, (1S,4s)-4-(8-(3-chloro-2,6-difluorophenylamino)-2-((1R,3S)-3-hydroxycyclohexylamino)-9H-purin-9-yl)cyclohexanecarboxamide], the IC50 is greater than 1000 nM.
On to `CC[C@H](CO)Nc1ncc2nc(Nc3c(Cl)cc(Cl)cc3Cl)n([C@H]3CC[C@@H](C(N)=O)CC3)c2n1` [Example 137, (1S,4s)-4-(2-((R)-1-hydroxybutan-2-ylamino)-8-(2,4,6-trichlorophenylamino)-9H-purin-9-yl)cyclohexanecarboxamide], for which the IC50 is greater than 1000 nM.
As for `NC(=O)[C@H]1CC[C@@H](n2c(Nc3c(Cl)cc(Cl)cc3Cl)nc3cnc(NCC4CCC4)nc32)CC1` [Example 110, (1s,4s)-4-(2-(cyclobutylmethylamino)-8-(2,4,6-trichlorophenylamino)-9H-purin-9-yl)cyclohexanecarboxamide], the IC50 lay in the range of 500 to 1000 nM.
As for `NC(=O)[C@H]1CC[C@@H](n2c(Nc3c(Cl)cccc3Cl)nc3cnc(N[C@H]4CCC[C@@H]4O)nc32)CC1` [Example 268, (1R,4s)-4-(8-(2,6-dichlorophenylamino)-2-((1S,2S)-2-hydroxycyclopentylamino)-9H-purin-9-yl)cyclohexanecarboxamide], the IC50 is greater than 1000 nM.
On to `CC1(C)CC[C@@H](Nc2ncc3nc(Nc4c(Cl)cc(F)cc4Cl)n([C@H]4CC[C@@H](C(N)=O)CC4)c3n2)C[C@H]1O` [Example 388, (1S,4s)-4-(8-(2,6-dichloro-4-fluorophenylamino)-2-((1R,3R)-3-hydroxy-4,4-dimethylcyclohexylamino)-9H-purin-9-yl)cyclohexanecarboxamide], for which the IC50 is greater than 1000 nM.

Still in this assay, the particulars now being: Homo sapiens; Lox-IMVI anti-proliferative assay, IC50 activity level; read-out: Activity.
For the compound `C[C@]1(C(N)=O)CC[C@H](n2c(Nc3c(Cl)cc(C(F)(F)F)cc3Cl)nc3cnc(NC4CCCC4)nc32)CC1` [Example 488, (1r,4r)-4-(2-(cyclopentylamino)-8-(2,6-dichloro-4-(trifluoromethyl)phenylamino)-9H-purin-9-yl)-1-methylcyclohexanecarboxamide], the IC50 is greater than 1000 nM.
Same read-out and setting: under `C[C@@H](CO)Nc1ncc2nc(Nc3c(Cl)cc(C(F)(F)F)cc3Cl)n([C@H]3CC[C@](C)(C(N)=O)CC3)c2n1` [Example 480, (1S,4r)-4-(8-(2,6-dichloro-4-(trifluoromethyl)phenylamino)-2-((S)-1-hydroxypropan-2-ylamino)-9H-purin-9-yl)-1-methylcyclohexanecarboxamide] stands greater than 1000 nM.
Consider `C[C@]1(C(N)=O)CC[C@@H](n2c(Nc3c(Cl)cc(F)cc3Cl)nc3cnc(NC4CCC(F)(F)CC4)nc32)CC1` [Example 526, (1s,4s)-4-(8-(2,6-dichloro-4-fluorophenylamino)-2-(4,4-difluorocyclohexylamino)-9H-purin-9-yl)-1-methylcyclohexanecarboxamide], for which the IC50 is less than 250 nM.
For `C[C@]1(C(N)=O)CC[C@@H](n2c(Nc3c(F)cc(Cl)cc3F)nc3cnc(NC4CCCC4)nc32)CC1` [Example 559, (1s,4s)-4-(8-(4-chloro-2,6-difluorophenylamino)-2-(cyclopentylamino)-9H-purin-9-yl)-1-methylcyclohexanecarboxamide], the IC50 was in the range of 250 to 500 nM.
`NC(=O)[C@H]1CC[C@@H](n2c(Nc3c(F)cc(Cl)cc3F)nc3cnc(N[C@@H]4CCC[C@@H](O)C4)nc32)CC1` [Example 421, (1S,4s)-4-(8-(4-chloro-2,6-difluorophenylamino)-2-((1R,3R)-3-hydroxycyclohexylamino)-9H-purin-9-yl)cyclohexanecarboxamide]: the IC50 is greater than 1000 nM.
`C[C@]1(C(N)=O)CC[C@@H](n2c(Nc3c(Cl)cc(F)cc3Cl)nc3cnc(N[C@@H]4CCC[C@H](O)C4)nc32)CC1` [Example 567, (1S,4s)-4-(8-(2,6-dichloro-4-fluorophenylamino)-2-((1R,3S)-3-hydroxycyclohexylamino)-9H-purin-9-yl)-1-methylcyclohexanecarboxamide]: the IC50 fell in the range of 500 to 1000 nM.
Still for that read-out and setting: under `NC(=O)[C@H]1CC[C@@H](n2c(Nc3c(Cl)cc(C(F)(F)F)cc3Cl)nc3cnc(N[C@@H]4CCOC4)nc32)CC1` [Example 523, (1S,4s)-4-(8-(2,6-dichloro-4-(trifluoromethyl)phenylamino)-2-((R)-tetrahydrofuran-3-ylamino)-9H-purin-9-yl)cyclohexanecarboxamide] stands greater than 1000 nM; under `C[C@]1(C(N)=O)CC[C@H](n2c(Nc3c(Cl)cc(Cl)cc3Cl)nc3cnc(NC4CCOCC4)nc32)CC1` [Example 474, (1r,4r)-1-methyl-4-(2-(tetrahydro-2H-pyran-4-ylamino)-8-(2,4,6-trichlorophenylamino)-9H-purin-9-yl)cyclohexanecarboxamide], greater than 1000 nM; under `C[C@@H](CO)Nc1ncc2nc(Nc3c(F)cc(Cl)cc3Cl)n([C@H]3CC[C@@](C)(C(N)=O)CC3)c2n1` [Example 547, (1R,4s)-4-(8-(2,4-dichloro-6-fluorophenylamino)-2-((S)-1-hydroxypropan-2-ylamino)-9H-purin-9-yl)-1-methylcyclohexanecarboxamide], less than 250 nM.

Staying with this assay, now noted: Homo sapiens; Lox-IMVI melanoma cell line, anti-proliferative assay; read-out: Activity (IC50 activity level).
For the compound `CC(C)OC(=O)N1CCC[C@@H](Nc2ncc3nc(Nc4c(F)cc(F)cc4Cl)n([C@H]4CC[C@@H](C(N)=O)CC4)c3n2)C1` [Example 767, (R)-isopropyl 3-(9-((1s,4S)-4-carbamoylcyclohexyl)-8-(2-chloro-4,6-difluorophenylamino)-9H-purin-2-ylamino)piperidine-1-carboxylate], the IC50 is greater than 1000 nM.
On the same count and under the same terms, under `C[C@]1(C(N)=O)CC[C@@H](n2c(Nc3c(Cl)cc(C#N)cc3Cl)nc3cnc(NC4CCC4)nc32)CC1` [Example 599, (1s,4s)-4-(2-(cyclobutylamino)-8-(2,6-dichloro-4-cyanophenylamino)-9H-purin-9-yl)-1-methylcyclohexanecarboxamide] stands less than 250 nM; under `C[C@@H]1COCC[C@H]1Nc1ncc2nc(Nc3c(F)cc(F)cc3Cl)n([C@H]3CC[C@@H](C(N)=O)CC3)c2n1` [Example 723, (1S,4s)-4-(8-(2-chloro-4,6-difluorophenylamino)-2-((3S,4R)-3-methyltetrahydro-2H-pyran-4-ylamino)-9H-purin-9-yl)cyclohexanecarboxamide], less than 250 nM; under `NC(=O)[C@H]1CC[C@@H](n2c(Nc3c(F)cc(F)cc3Cl)nc3cnc(N[C@H]4CCOC[C@H]4F)nc32)CC1` [Example 692, (1R,4s)-4-(8-(2-chloro-4,6-difluorophenylamino)-2-((3S,4S)-3-fluorotetrahydro-2H-pyran-4-ylamino)-9H-purin-9-yl)cyclohexanecarboxamide], less than 250 nM.
On the same count and under the same terms, under `NC(=O)[C@H]1CC[C@@H](n2c(Nc3c(F)cc(F)cc3Cl)nc3cnc(NC4CCC(c5ncno5)CC4)nc32)CC1` (stereo partly drawn) [Example 677, (1s,4s)-4-(2-(4-(1,2,4-oxadiazol-5-yl)cyclohexylamino)-8-(2-chloro-4,6-difluorophenylamino)-9H-purin-9-yl)cyclohexanecarboxamide] stands greater than 1000 nM.

For the origin of these results see patent US11590139B2, “Substituted aminopurine compounds, compositions thereof, and methods of treatment therewith” (Signal Pharmaceuticals, LLC, priority 2014, dated 2023).
